In patent US10213427B2 (Incyte Corporation, priority 2010, dated 2019):

Target: FGFR3 enzyme (Millipore) (Homo sapiens (Human), UniProt P22607)
Test: FGFR3 Enzymatic Assay
Format: biochemical
Details: FRET peptide phosphorylation, 140 μM ATP
Experimental: The inhibitor potency of compounds of the invention was measured in an enzyme assay that measures peptide phosphorylation using FRET measurements to detect product formation. Inhibitors were serially diluted in DMSO and a volume of 0.5 μL was transferred to the wells of a 384-well plate. A 10 μL volume of FGFR3 enzyme (Millipore) diluted in assay buffer (50 mM HEPES, 10 mM MgCl2, 1 mM EGTA, 0.01% Tween-20, 5 mM DTT, pH 7.5) was added to the plate and pre-incubated for 5-10 minutes. Appropriate controls (enzyme blank and enzyme with no inhibitor) were included on the plate. […] The plate was incubated at 25° C. for 1 hr. […] The plate was allowed to equilibrate for ˜1 hr before scanning the wells on a PheraStar plate reader.
GraphPad prism3 was used to analyze the data. The IC50 values were derived by fitting the data to the equation for a sigmoidal dose-response with a variable slope. Y=Bottom+(Top−Bottom)/(1+10^((Log IC50−X)*HillSlope)) where X is the logarithm of concentration and Y is the response.

Sequence of FGFR3 enzyme (Millipore) (P22607 23-806): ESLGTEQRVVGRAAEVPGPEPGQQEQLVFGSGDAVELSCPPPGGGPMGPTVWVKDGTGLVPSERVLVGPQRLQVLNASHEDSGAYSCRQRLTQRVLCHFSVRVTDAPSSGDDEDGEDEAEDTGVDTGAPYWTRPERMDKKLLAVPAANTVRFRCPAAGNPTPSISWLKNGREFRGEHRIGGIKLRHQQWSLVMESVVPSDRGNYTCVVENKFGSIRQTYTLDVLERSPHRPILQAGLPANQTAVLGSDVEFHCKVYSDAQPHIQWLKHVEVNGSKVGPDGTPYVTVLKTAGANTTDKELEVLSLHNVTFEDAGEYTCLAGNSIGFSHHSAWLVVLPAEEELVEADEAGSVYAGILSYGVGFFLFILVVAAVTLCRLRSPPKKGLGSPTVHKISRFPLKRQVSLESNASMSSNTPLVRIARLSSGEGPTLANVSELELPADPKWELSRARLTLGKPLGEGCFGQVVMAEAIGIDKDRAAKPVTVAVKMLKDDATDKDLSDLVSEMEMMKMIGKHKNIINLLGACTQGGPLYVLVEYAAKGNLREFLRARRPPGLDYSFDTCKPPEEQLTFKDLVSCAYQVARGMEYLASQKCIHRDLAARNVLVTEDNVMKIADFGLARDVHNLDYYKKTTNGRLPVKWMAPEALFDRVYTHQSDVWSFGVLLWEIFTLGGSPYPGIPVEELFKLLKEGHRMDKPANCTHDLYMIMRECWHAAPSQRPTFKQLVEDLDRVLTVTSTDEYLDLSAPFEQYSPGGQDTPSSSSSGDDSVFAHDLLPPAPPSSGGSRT

| IC50 [nM] | Compound |
| --- | --- |
| < 10 | CC(C(=O)NC1CCOCC1)n1cc(-c2cnn3c(-c4cccc(NC(=O)NCC(F)(F)F)c4)cnc3c2)cn1 (stereo not shown) [Example 57, N-(Tetrahydro-2H-pyran-4-yl)-2-(4-{3-[3-({[(2,2,2-trifluoroethyl)amino]carbonyl}amino)phenyl]imidazo[1,2-b]pyridazin-7-yl}-1H-pyrazol-1-yl)propanamide] |
| < 10 | CC(C(=O)N1CCOCC1)n1cc(-c2cnn3c(-c4cccc(NC(=O)NCC(F)(F)F)c4)cnc3c2)cn1 (stereo not shown) [Example 58, N-(3-{7-[1-(1-Methyl-2-morpholin-4-yl-2-oxoethyl)-1H-pyrazol-4-yl]imidazo[1,2-b]pyridazin-3-yl}phenyl)-N′-(2,2,2-trifluoroethyl)urea] |
| < 10 | CC(C(=O)N1CCN(C)CC1)n1cc(-c2cnn3c(-c4cccc(NC(=O)NCC(F)(F)F)c4)cnc3c2)cn1 (stereo not shown) [Example 60, N-[3-(7-{1-[1-Methyl-2-(4-methylpiperazin-1-yl)-2-oxoethyl]-1H-pyrazol-4-yl}imidazo[1,2-b]pyridazin-3-yl)phenyl]-N′-(2,2,2-trifluoroethyl)urea] |
| < 10 | CC(C(=O)NCc1ccccn1)n1cc(-c2cnn3c(-c4cccc(NC(=O)NCC(F)(F)F)c4)cnc3c2)cn1 (stereo not shown) [Example 61, N-(Pyridin-2-ylmethyl)-2-(4-{3-[3-({[(2,2,2-trifluoroethyl)amino]carbonyl}amino)phenyl]imidazo[1,2-b]pyridazin-7-yl}-1H-pyrazol-1-yl)propanamide] |
| < 10 | CC(C(=O)NCC#N)n1cc(-c2cnn3c(-c4cccc(NC(=O)NCC(F)(F)F)c4)cnc3c2)cn1 (stereo not shown) [Example 66, N-(Cyanomethyl)-2-(4-{3-[3-({[(2,2,2-trifluoroethyl)amino]carbonyl}amino)phenyl]imidazo[1,2-b]pyridazin-7-yl}-1H-pyrazol-1-yl)propanamide] |
| < 10 | CC(C(=O)N1CCC(C#N)C1)n1cc(-c2cnn3c(-c4cccc(NC(=O)NCC(F)(F)F)c4)cnc3c2)cn1 (stereo not shown) [Example 67, N-[3-(7-{1-[2-(3-Cyanopyrrolidin-1-yl)-1-methyl-2-oxoethyl]-1H-pyrazol-4-yl}imidazo[1,2-b]pyridazin-3-yl)phenyl]-N′-(2,2,2-trifluoroethyl)urea] |
| < 10 | COC1CCN(C(=O)C(C)n2cc(-c3cnn4c(-c5cccc(NC(=O)NCC(F)(F)F)c5)cnc4c3)cn2)C1 (stereo not shown) [Example 68, N-[3-(7-{1-[2-(3-Methoxypyrrolidin-1-yl)-1-methyl-2-oxoethyl]-1H-pyrazol-4-yl}imidazo[1,2-b]pyridazin-3-yl)phenyl]-N′-(2,2,2-trifluoroethyl)urea] |
| < 10 | COC1CCN(C(=O)C(C)n2cc(-c3cnn4c(-c5cccc(NC(=O)NCC(F)(F)F)c5)cnc4c3)cn2)CC1 (stereo not shown) [Example 69, N-[3-(7-{1-[2-(4-Methoxypiperidin-1-yl)-1-methyl-2-oxoethyl]-1H-pyrazol-4-yl}imidazo[1,2-b]pyridazin-3-yl)phenyl]-N′-(2,2,2-trifluoroethyl)urea] |
| < 10 | CC(C(=O)N1CCC(C#N)CC1)n1cc(-c2cnn3c(-c4cccc(NC(=O)NCC(F)(F)F)c4)cnc3c2)cn1 (stereo not shown) [Example 70, N-[3-(7-{1-[2-(4-Cyanopiperidin-1-yl)-1-methyl-2-oxoethyl]-1H-pyrazol-4-yl}imidazo[1,2-b]pyridazin-3-yl)phenyl]-N′-(2,2,2-trifluoroethyl)urea] |
| < 10 | CC(C(=O)NC1CCN(C)CC1)n1cc(-c2cnn3c(-c4cccc(NC(=O)NCC(F)(F)F)c4)cnc3c2)cn1 (stereo not shown) [Example 71, N-(1-Methylpiperidin-4-yl)-2-(4-{3-[3-({[(2,2,2-trifluoroethyl)amino]carbonyl}amino)phenyl]imidazo[1,2-b]pyridazin-7-yl}-1H-pyrazol-1-yl)propanamide] |
| < 10 | CC(C(=O)N1CC(C#N)C1)n1cc(-c2cnn3c(-c4cccc(NC(=O)NCC(F)(F)F)c4)cnc3c2)cn1 (stereo not shown) [Example 72, N-[3-(7-{1-[2-(3-Cyanoazetidin-1-yl)-1-methyl-2-oxoethyl]-1H-pyrazol-4-yl}imidazo[1,2-b]pyridazin-3-yl)phenyl]-N′-(2,2,2-trifluoroethyl)urea] |
| < 10 | Cn1ccc(S(=O)(=O)N2CC(CC#N)(n3cc(-c4cnn5c(-c6cccc(NC(=O)NCC(F)(F)F)c6)cnc5c4)cn3)C2)n1 [Example 73, N-{3-[7-(1-{3-(Cyanomethyl)-1-[(1-methyl-1H-pyrazol-3-yl)sulfonyl]azetidin-3-yl}-1H-pyrazol-4-yl)imidazo[1,2-b]pyridazin-3-yl]phenyl}-N′-(2,2,2-trifluoroethyl)urea] |
| < 10 | Cc1oncc1S(=O)(=O)N1CC(CC#N)(n2cc(-c3cnn4c(-c5cccc(NC(=O)NCC(F)(F)F)c5)cnc4c3)cn2)C1 [Example 74, N-{3-[7-(1-{3-(Cyanomethyl)-1-[(5-methylisoxazol-4-yl)sulfonyl]azetidin-3-yl}-1H-pyrazol-4-yl)imidazo[1,2-b]pyridazin-3-yl]phenyl}-N′-(2,2,2-trifluoroethyl)urea] |
| < 10 | COCC(=O)N1CC(CC#N)(n2cc(-c3cnn4c(-c5cccc(NC(=O)NCC(F)(F)F)c5)cnc4c3)cn2)C1 [Example 75, N-[3-(7-{1-[3-(Cyanomethyl)-1-(methoxyacetyl)azetidin-3-yl]-1H-pyrazol-4-yl}imidazo[1,2-b]pyridazin-3-yl)phenyl]-N′-(2,2,2-trifluoroethyl)urea] |
| < 10 | CN(C)CC(=O)N1CC(CC#N)(n2cc(-c3cnn4c(-c5cccc(NC(=O)NCC(F)(F)F)c5)cnc4c3)cn2)C1 [Example 76, N-{3-[7-(1-{3-(Cyanomethyl)-1-[(dimethylamino)acetyl]azetidin-3-yl}-1H-pyrazol-4-yl)imidazo[1,2-b]pyridazin-3-yl]phenyl}-N′-(2,2,2-trifluoroethyl)urea] |
| < 10 | CC(CC#N)n1cc(-c2cnn3c(-c4cccc(NC(=O)NCC(F)(F)F)c4)cnc3c2)cn1 (stereo not shown) [Example 89, N-(3-{7-[1-(2-Cyano-1-methylethyl)-1H-pyrazol-4-yl]imidazo[1,2-b]pyridazin-3-yl}phenyl)-N′-(2,2,2-trifluoroethyl)urea] |

| Compound | IC50 [nM] |
| --- | --- |
| CC(C(=O)N(C)C1CCOCC1)n1cc(-c2cnn3c(-c4cccc(NC(=O)NCC(F)(F)F)c4)cnc3c2)cn1 (stereo not shown) [Example 59, N-Methyl-N-(tetrahydro-2H-pyran-4-yl)-2-(4-{3-[3-({[(2,2,2-trifluoroethyl)amino]carbonyl}amino)phenyl]imidazo[1,2-b]pyridazin-7-yl}-1H-pyrazol-1-yl)propanamide] | < 10 |
| CC(C(=O)NCCN1CCCC1=O)n1cc(-c2cnn3c(-c4cccc(NC(=O)NCC(F)(F)F)c4)cnc3c2)cn1 (stereo not shown) [Example 62, N-[2-(2-Oxopyrrolidin-1-yl)ethyl]-2-(4-{3-[3-({[(2,2,2-trifluoroethyl)amino]carbonyl}amino)phenyl]imidazo[1,2-b]pyridazin-7-yl}-1H-pyrazol-1-yl)propanamide] | < 10 |
| N#CCC1(n2cc(-c3cnn4c(-c5cccc(NC(=O)NCC(F)(F)F)c5)cnc4c3)cn2)CN(CC2CC2)C1 [Example 83, N-[3-(7-{1-[3-(Cyanomethyl)-1-(cyclopropylmethyl)azetidin-3-yl]-1H-pyrazol-4-yl}imidazo[1,2-b]pyridazin-3-yl)phenyl]-N′-(2,2,2-trifluoroethyl)urea] | 10 to 25 |
